Converted amounts (≈) assume the structure as drawn. Read-outs that look alike come from different tables or passages of the source.
How the values were obtained:
boar spermatozoa [1] = experiment: cells; assay type: cell-based; conditions: for EC50: Spermatozoa
boar spermatozoa [2] = experiment: cells; assay type: cell-based; conditions: for EC50: Spermatozoa, 24 h, read-out: EC50 SMID 1 day
[3] = tested on: porcine kidney PK-15 cells; experiment: cells; assay type: cell-based; conditions: for EC50: Sus scrofa, read-out: EC50 ICP 2 days
M. circinelloides = tested on: M. circinelloides; design: method as in doi:10.1211/146080800128736312, PMID 21054501, PMID 22130129, PMID 23538442; conditions: cited from earlier work
[4] = boar sperm, exposure 0.5–1 h, twofold dilutions, three measurements within one dilution step, read-out: EC50 BSMI 0.5–1 h
[5] = boar sperm, exposure 1–2 days, twofold dilutions, read-out: EC50 BSMI 1–2 days
[6] = boar sperm, exposure 1 day, SD between three measurements < ± 35%
[7] = PK-15, 48 h, PK-15 cells, exposure 2 days, SD between three measurements < ± 35%
[8] = PK-15 cells, exposure 2 days, SD between three measurements < ± 35%
[9] = boar sperm, exposure 0.5–1 h, twofold dilutions, three measurements within one dilution step
[10] = boar sperm, exposure 1–2 days, twofold dilutions

CC1(C)C=Cc2c(ccc3c2[N+]([O-])=C2C3=C[C@@]34NC(=O)[C@]5(CCCN5C3=O)C[C@H]4C2(C)C)O1 [Avrainvillamide]
EC50 (boar spermatozoa [1]; [4]): 0.6 µg/mL (≈ 1.35 µM) | EC50 (boar spermatozoa [1]; [5]): 0.3 µg/mL (≈ 0.673 µM) | EC50 (boar spermatozoa [2]; [6]): > 2 µg/mL | EC50 [3, 7]: 0.3 µg/mL (≈ 0.673 µM)

C[C@@H]1Cc2c(Cl)cc(C(=O)N[C@@H](Cc3ccccc3)C(=O)O)c(O)c2C(=O)O1 [Ochratoxin A]
EC50 (boar spermatozoa [1]; [4]): > 100 µg/mL | EC50 (boar spermatozoa [1]; [5]): > 50 µg/mL | EC50 (boar spermatozoa [2]; [6]): > 50 µg/mL | EC50 ([3]; 48 h, PK-15 cells, exposure 2 days, SD between three measurements < ± 35%): > 50 µg/mL

CC(C)=C[C@H]1C[C@H](C)[C@]2(CC[C@]3(C)C[C@H]4[C@H](C(=O)C[C@@]4(C)O)/C(C=O)=C\C[C@H]32)O1 [Ophiobolin A]
EC50 (boar spermatozoa [1]; [4]): 2.5 µg/mL (≈ 6.24 µM) | EC50 (boar spermatozoa [1]; [5]): 0.25 µg/mL (≈ 0.624 µM) | treatment concentration at which apoptosis-like cell death process was observed (M. circinelloides): 1.6 µg/mL | EC50 (boar spermatozoa [2]; [6]): 2 µg/mL (≈ 4.99 µM) | EC50 ICP 2 days [3, 8]: 0.2 µg/mL (≈ 0.499 µM)

CC1(C)C=Cc2c(ccc3c2[N+]([O-])=C2C(C)(C)[C@@H]4CC56CCCN5C(=O)[C@]4(NC6=O)[C@H]4N5C(=O)[C@@]67CCCN6C(=O)[C@@]56[C@H](c5c(n(O)c8c9c(ccc58)OC(C)(C)C=C9)C(C)(C)[C@@H]6C7)[C@]234)O1 [Stephacidin B]
EC50 BSMI 0.5–1 h (boar spermatozoa [1]; [9]): 0.5 µg/mL (≈ 0.561 µM) | EC50 BSMI 1–2 days (boar spermatozoa [1]; [10]): 0.2 µg/mL (≈ 0.224 µM) | EC50 SMID 1 day (boar spermatozoa [2]; [6]): >2 µg/mL | EC50 ICP 2 days [3, 8]: 0.2 µg/mL (≈ 0.224 µM)

COc1cc2c(c3oc4cccc(O)c4c(=O)c13)[C@@H]1C=CO[C@@H]1O2 [Sterigmatocystin]
EC50 BSMI 0.5–1 h (boar spermatozoa [1]): >100 µg/mL | EC50 BSMI 1–2 days (boar spermatozoa [1]): >20 µg/mL | EC50 SMID 1 day (boar spermatozoa [2]): >20 µg/mL | EC50 ICP 2 days [3]: 0.25 µg/mL (≈ 0.771 µM) | toxicity to proliferating PK-15 cells in the ICP assay [3]: highly toxic

Oc1cc(Cl)ccc1Oc1ccc(Cl)cc1Cl [triclosan]
EC50 (boar spermatozoa [2]; [6]): 2 µg/mL (≈ 6.91 µM) | EC50 [3, 7]: 9.4 µg/mL (≈ 32.5 µM)

Alamethicin
EC50 BSMI 0.5–1 h (boar spermatozoa [1]; [9]): 5 µg/mL | EC50 BSMI 1–2 days (boar spermatozoa [1]; [10]): 0.2 µg/mL | EC50 SMID 1 day (boar spermatozoa [2]; [6]): 0.2 µg/mL | EC50 ICP 2 days [3, 8]: 8 µg/mL

Source: publication PMC6949950, “Screening Mold Colonies by Using Two Toxicity Assays Revealed Indoor Strains of Aspergillus calidoustus Producing Ophiobolins G and K” (Toxins, 2019)
